Data set [1] concerns the target T1, human 5-HT2AR (Homo sapiens, UniProt P28223). Particulars: read-out: 5-HT2AR (nM), Table S3, cited from earlier work.
Data set [2] has as its target T2, human 5-HT2CR (Homo sapiens, UniProt P28335).
T2 sequence (P28335 33-458): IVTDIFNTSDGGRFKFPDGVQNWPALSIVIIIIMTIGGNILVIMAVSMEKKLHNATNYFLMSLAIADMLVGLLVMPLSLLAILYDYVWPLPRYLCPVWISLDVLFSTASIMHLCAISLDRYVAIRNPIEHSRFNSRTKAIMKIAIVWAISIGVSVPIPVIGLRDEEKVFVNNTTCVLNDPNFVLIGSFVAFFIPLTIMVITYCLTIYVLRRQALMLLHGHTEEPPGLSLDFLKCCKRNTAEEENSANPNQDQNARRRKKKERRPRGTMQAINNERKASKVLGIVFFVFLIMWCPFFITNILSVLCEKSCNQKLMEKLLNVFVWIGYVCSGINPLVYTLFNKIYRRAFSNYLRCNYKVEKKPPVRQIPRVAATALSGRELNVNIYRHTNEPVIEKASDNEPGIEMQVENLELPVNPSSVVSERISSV

In data set [3] the target is T3, human 5-HT2BR (Homo sapiens, UniProt P41595). To be noted: commercially available compounds known to bind 5-HT2BR; ref Roth et al., 2000; read-out: 5-HT2BR (nM), Table S3; cited from earlier work.
For data set [4], the system named is scn1lab mutant zebrafish. The experiment in a line: locomotion (mean swim velocity) seizure-like behaviour assay in scn1lab mutant zebrafish larvae. The data set is classed as in vivo, Danio rerio. Particulars: for effect on seizure-like swim behaviour, commercially available compounds: three concentrations; for change in vivo at 100 µM / change in vivo at 250 µM: Danio rerio; for effect on seizure-like swim behaviour, initial library screen: 100 µM or 250 µM, UCSF-synthesized compound. As to the method: (§1) For locomotion studies, zebrafish larvae (5 days post-fertilization) were placed into a single well of a clear flat-bottomed 96-well microplate containing embryo media. Sex determination is not possible at this stage of development. All drug screening experiments were conducted in an unbiased manner by investigators blinded to the test compounds and all files coded for post hoc analysis. The 96-well plate containing larvae was then placed inside a DanioVision box where they were allowed to acclimate (20 min; room temperature). EthoVision XT software (DanioVision, Noldus Information Technology) was used to obtain locomotion plots (10 min in duration). Seizure scoring was performed, as described ([Baraban et al., 2005]). All locomotion plots were analysed for distance travelled (in millimetres) and mean velocity (in millimetres per second). After 90 min of drug exposure larvae were examined for toxic side-effects. Compounds that decreased or stopped the larva heartbeat, or reduced or eliminated the escape response when touched, were considered toxic.
For behaviour analysis, the threshold for a change in mean swim velocity ≥40% is considered significant (>1.5× SD of 250 control treated scn1lab). Unless otherwise indicated, all data in this manuscript are presented as the mean ± standard error of the mean. […] Statistically significant differences are indicated with asterisks (*P < 0.05; **P < 0.01; ***P < 0.001). […]

The subject of data set [5] is scn1lab mutant zebrafish larvae. The data set can be described thus: toxicity check of larvae after 90 min drug exposure (heartbeat, escape response). The data set is classed as in vivo, Danio rerio. To be noted: 90 min exposure. As to the method: as §1, with “Seizure scoring was performed, as described ([Baraban et al., 2005]).” left out
The target in data set [6] is T2, human 5-HT2CR. The experiment in a line: radioligand binding (NIMH PDSP). On the procedure:
(§2) All in vitro binding assay and Ki data studies were performed by the US National Institute of Mental Health Psychoactive Drug Screening Program (NIMH PDSP). For these studies, drugs were screened against recombinant, stably expressed human 5-HT2AR, 5-HT2BR, 5-HT2CR and H1, as described at https://pdspdb.unc.edu/pdspWeb/ ([Besnard et al., 2012]).

Data set [7] deals with T3, human 5-HT2BR. The data set can be described thus: radioligand binding (NIMH PDSP). On the procedure: as §2
Data set [8] addresses T1, human 5-HT2AR. The experiment in a line: radioligand binding (NIMH PDSP). As to the method:
as §2

In data set [9] the target is human H1 (Homo sapiens, UniProt P35367). The data set can be described thus: radioligand binding (NIMH PDSP). As to the method:
as §2

The test system of data set [10] is scn1lab mutant zebrafish. The experiment in a line: local field potential (LFP) electrophysiology, electrographic seizure events. Format: in vivo, Danio rerio. Particulars: 100 µM; 10 min recording epoch. As to the method: Using a glass micro-electrode positioned under an upright microscope, local field potential (LFP) recordings were obtained from forebrain or optic tectum structures, as described ([Baraban et al., 2005]). Agarose-embedded LFP recording sessions (10 min in duration) were obtained using Axoclamp software (Molecular Devices; Sunnyvale, CA, USA) and sampled at 1 kHz. Epileptiform events were identified post hoc. These were classified as multi-spike or poly-spike upward or downward membrane deflections greater than 3× baseline noise level and 150–250 ms in duration (interictal-like) or greater than 5× baseline noise, multi-spike and >500 ms in duration (ictal-like); both events were counted using threshold detection settings in Clampfit (Molecular Devices; Sunnyvale, CA, USA). Agarose-embedded larvae were continuously monitored for blood flow and heart rate using an Axiocam digital camera at video frame rate.
Monitoring electrographic brain activity to confirm seizure suppression is an essential assay to eliminate false positives from behavioural testing ([Griffin et al., 2018]). By placing a micro-electrode into a visually identified brain region of an agar-immobilized zebrafish larval, stable LFP recordings can be monitored for several hours ([Baraban, 2013]). At 5 days post-fertilization, LFP recordings of scn1Lab zebrafish larvae show an average of 250 abnormal electrographic seizure events during a 10 min recording epoch.

Where [11] appears, read: commercially available compounds known to bind 5-HT2BR, ref Roth et al., 2000.
[12] abbreviates: commercially available compounds known to bind 5-HT2BR; ref Roth et al., 2000; read-out: 5-HT2CR (nM), Table S3; cited from earlier work.
[13] abbreviates: read-out: % change in velocity, individual larva 1 (heat map).
The mark [14] stands for this setting: read-out: % change in velocity, individual larva 2 (heat map).
[15] abbreviates: read-out: % change in velocity, individual larva 3 (heat map).
Setting [16] is: read-out: % change in velocity, individual larva 4 (heat map).
The mark [17] stands for this setting: read-out: % change in velocity, individual larva 5 (heat map).
[18] abbreviates: read-out: % change in velocity, individual larva 6 (heat map).
[19] abbreviates: read-out: mean velocity change from six fish, Trial 1.
The mark [20] stands for this setting: read-out: mean velocity change from six fish, Trial 2.
Setting [21] is: read-out: 5-HT2CR (nM), Table S3; commercially available compounds known to bind 5-HT2BR; ref Roth et al., 2000; cited from earlier work.

For orientation: pKi means the Ki on a negative log10 scale, so that one unit is a factor of ten.

Structures are written as SMILES. pKi: −log10 of the molar value. Read-outs that look alike come from different tables or passages of the source.

T3 sequence (P41595 whole entry): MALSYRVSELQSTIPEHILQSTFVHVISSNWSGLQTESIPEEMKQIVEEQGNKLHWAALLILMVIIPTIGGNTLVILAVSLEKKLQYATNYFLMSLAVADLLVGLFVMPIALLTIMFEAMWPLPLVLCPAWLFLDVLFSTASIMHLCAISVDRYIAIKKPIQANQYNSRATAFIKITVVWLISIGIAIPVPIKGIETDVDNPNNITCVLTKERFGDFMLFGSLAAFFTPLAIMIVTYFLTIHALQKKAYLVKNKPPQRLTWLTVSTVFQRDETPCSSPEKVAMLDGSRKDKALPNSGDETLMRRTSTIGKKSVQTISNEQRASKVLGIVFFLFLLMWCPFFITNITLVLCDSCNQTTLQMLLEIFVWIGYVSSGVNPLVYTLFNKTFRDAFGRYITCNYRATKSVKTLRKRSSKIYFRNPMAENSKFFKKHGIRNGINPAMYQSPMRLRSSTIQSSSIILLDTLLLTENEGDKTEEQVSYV
T1 sequence (P28223 whole entry): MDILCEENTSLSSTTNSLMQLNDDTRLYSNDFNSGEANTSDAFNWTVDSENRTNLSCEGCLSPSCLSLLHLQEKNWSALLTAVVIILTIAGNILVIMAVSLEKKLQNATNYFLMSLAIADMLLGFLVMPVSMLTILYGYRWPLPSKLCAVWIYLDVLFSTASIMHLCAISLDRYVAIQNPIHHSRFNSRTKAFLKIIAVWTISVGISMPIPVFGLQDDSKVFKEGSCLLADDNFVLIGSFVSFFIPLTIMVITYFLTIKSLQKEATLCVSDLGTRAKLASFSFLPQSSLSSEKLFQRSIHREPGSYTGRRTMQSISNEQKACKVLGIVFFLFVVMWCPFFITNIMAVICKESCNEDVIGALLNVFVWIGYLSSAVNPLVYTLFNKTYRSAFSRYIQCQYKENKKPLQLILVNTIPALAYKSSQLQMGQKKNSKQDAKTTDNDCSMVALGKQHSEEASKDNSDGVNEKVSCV
Chain of human H1 (P35367 whole entry): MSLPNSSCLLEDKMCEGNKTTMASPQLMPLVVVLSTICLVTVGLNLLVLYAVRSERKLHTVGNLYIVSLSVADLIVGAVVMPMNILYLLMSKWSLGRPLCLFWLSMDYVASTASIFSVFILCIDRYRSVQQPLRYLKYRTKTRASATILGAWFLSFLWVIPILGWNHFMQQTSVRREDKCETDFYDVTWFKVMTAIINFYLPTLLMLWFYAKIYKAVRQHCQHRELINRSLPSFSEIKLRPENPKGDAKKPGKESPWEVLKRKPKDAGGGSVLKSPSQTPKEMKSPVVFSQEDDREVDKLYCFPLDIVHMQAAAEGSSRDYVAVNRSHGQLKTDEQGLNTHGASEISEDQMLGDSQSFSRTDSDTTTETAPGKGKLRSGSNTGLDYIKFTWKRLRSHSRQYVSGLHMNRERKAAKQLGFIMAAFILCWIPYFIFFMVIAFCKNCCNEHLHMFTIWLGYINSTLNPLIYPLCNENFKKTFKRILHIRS

As for `Br.CN(C)C1CCc2cc(O)c(O)cc2C1` (stereo not shown) [TL-99], the Ki was 2340 nM in data set [1] (setting [11]), 2290 nM in data set [2] (setting [12]) and 2040 nM in [3]. Also, the “effect on seizure-like swim behaviour, commercially available compounds” value (shortened to “effect … commercially available compounds”) in data set [4] (30 and 90 min exposure) is recorded as “failed to elicit any behavioural effect”.

Regarding `CCN(CC)Cc1nc2ccccc2n1Cc1ccc(Cl)cc1` [Compound 24], the “toxicity in initial analogue screening” value in data set [5] (100 µM or 250 µM) was “toxic”. For the same molecule, the negative-log Ki (pKi) in data set [6] was 5.85; in data set [7] (read-out: Ki 5-HT2BR) it was 6.94; in data set [8] it was 5.90; in data set [9] (read-out: Ki H1), 8.43. In addition, the change in vivo at 100 µM in data set [4] (setting [13]) was 67.6%; in data set [4] (setting [14]), 330%; in data set [4] (setting [15]) it was -70.1%; in data set [4] (setting [16]) it was -28%; in data set [4] (setting [17]) it was -30.1%; in [4] (setting [18]), -3.9%. The change in vivo at 100 µM in data set [4] (setting [19]) and in [4] (setting [20]) was 3.5% each time. In addition, the change in vivo at 250 µM is -100% in [4] (setting [13]); -100% in data set [4] (setting [14]); -90% in data set [4] (setting [15]); -100% in data set [4] (setting [16]); -100% in data set [4] (setting [17]); -100% in data set [4] (setting [18]). For the same molecule, the change in vivo at 250 µM in [4] (setting [19]) was -98.7%.

On to `c1cnc(N2CCN(Cc3ccc4c(c3)OCO4)CC2)nc1` [piribedil, Piribedil, reference compound], for which the Ki in [1] (setting [11]) and in [2] (setting [21]) was more than 10000 nM in each case. In addition, in [5] (100 µM), the “toxicity at 100 µM” value is “toxicity”. Also, the “toxicity at 250 µM” value in data set [5] is recorded as “toxicity”.

Consider `c1ccc2c(c1)nc(CN1CCCC1)n2CC1CCCCC1` [Compound 4], for which the “effect on electrographic seizure activity (LFP)” value in [10] was “significant suppression of electrographic seizure activity”. The results for the negative logarithm of the Ki (pKi) in [7] and in data set [9] were 6.21 and 6.82, respectively. For the same molecule, the “effect on seizure-like swim behaviour, initial library screen” value in data set [4] is listed as “effective in suppressing”. In [4] (10, 50, 100 and 250 µM, 30 and 90 min exposure), the “effect on seizure-like swim behaviour, retest of independently synthesized compound” value is “reduced the high-velocity seizure-like swim behaviour”. Moreover, the change in vivo at 100 µM in [4] (setting [13]) was -85.7%; in data set [4] (setting [14]), -30.6%; in data set [4] (setting [15]), -85.6%; in data set [4] (setting [16]) it was -68.3%; in data set [4] (setting [17]), -79.4%; in data set [4] (setting [18]), 146%. Also, the change in vivo at 100 µM was -41.7% in data set [4] (setting [19]) and -44.8% in data set [4] (setting [20]). The change in vivo at 250 µM in data set [4] (setting [13]) is -93.5%; in data set [4] (setting [14]), -100%; in [4] (setting [15]) it was -100%; in data set [4] (setting [16]), -67.4%; in data set [4] (setting [17]), -83.7%; in data set [4] (setting [18]) it was -100%. Besides, the change in vivo at 250 µM is -93.4% in data set [4] (setting [19]) and -100% in data set [4] (setting [20]).

On to `Clc1cccc(COc2cncc(N3CCNCC3)n2)c1` [CP-809,101], for which the figures for the Ki in data set [1] (setting [11]), in data set [2] (setting [12]) and in data set [3] were 1.6 nM, 64 nM and 6 nM, respectively. Besides, in [4] (30 and 90 min exposure), the “effect … commercially available compounds” value is recorded as “biphasic response”.

With `C=CCN1C[C@H](C(=O)N(CCCN(C)C)C(=O)NCC)C[C@@H]2c3cccc4[nH]cc(c34)C[C@H]21` [cabergoline, Cabergoline], the Ki was 6.17 nM in data set [1] (setting [11]) and 692 nM in [2] (setting [21]). In addition, in data set [4] (250 µM), the “effect on convulsive swim behaviour at 250 µM” value was “significantly reduced convulsive swim behaviour”.

For `C[C@H](N)Cn1ccc2cc(F)c(Cl)cc21` [Ro 60-0175], the values for the Ki in data set [1], in data set [2] (setting [12]) and in data set [3] were 37.2 nM, 9.1 nM and 4.3 nM, respectively. Besides, the “effect … commercially available compounds” value in data set [4] (30 and 90 min exposure) was “borderline effective”.

Take `Clc1ccc(Cn2ccnc2CN2CCCC2)cc1` [Compound 9]: in [5], the “toxicity at 250 µM” value is on record as “toxic”. The negative-log Ki (pKi) was 6.35 in data set [6], less than 5.00 in data set [7] (read-out: Ki 5-HT2BR), less than 5.00 in data set [8] and 7.54 in data set [9] (read-out: Ki H1). The “effect on seizure-like swim behaviour, initial library screen” value in data set [4] is “effective in suppressing”. For the same molecule, the change in vivo at 100 µM in data set [4] (setting [13]) was -13.5%; in data set [4] (setting [14]), -0.7%; in data set [4] (setting [15]), -34.9%; in data set [4] (setting [16]), -57.3%; in data set [4] (setting [17]), 34.4%; in data set [4] (setting [18]), -33.2%. The change in vivo at 100 µM in data set [4] (setting [19]) and in [4] (setting [20]) was -28.1% each time. Further, the change in vivo at 250 µM in data set [4] (setting [13]) was -94%; in data set [4] (setting [14]) it was -100%; in data set [4] (setting [15]) it was -22.5%; in data set [4] (setting [16]) it was -100%; in [4] (setting [17]), -38.8%; in data set [4] (setting [18]), -100%. The change in vivo at 250 µM in [4] (setting [19]) was -73.2%; in data set [4] (setting [20]), -100%.

(Values after article PMC6798786 (Brain Communications, 2019).)
